The source of these data is patent EP4603105A1, “PHARMACEUTICAL COMPOSITION CONTAINING CYCLIC COMPOUND HAVING SELECTIVE KRAS INHIBITORY EFFECT AGAINST HRAS AND NRAS” (CHUGAI SEIYAKU KABUSHIKI KAISHA, priority 2022, dated 2024).

For one experiment, the target named is HRAS wild-type protein (Homo sapiens, UniProt P01112). Description: Binding to HRAS by surface plasmon resonance (SPR), KD and KD ratio to KRAS. As to conditions: ratio of KD value for HRAS wild-type protein to KD value for KRAS (SPR). The gist of the method: (§1)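 Single-cycle kinetics on GDP-loaded biotin-Avi RAS captured to ~100–300 RU; 75 s ascending injections, 100 µL/min, 30°C. HBS pH 7.4 + 10 mM MgCl2/10 µM GDP/4% DMSO. 1:1 fit, KD.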
For orientation: In SPR one partner is held on a chip, and binding of the other changes the refractive index at the surface.

Experiment [1] concerns the target GDP-bound NRAS wild-type protein (Homo sapiens, UniProt P01111). Description: Binding to NRAS by surface plasmon resonance (SPR), KD and KD ratio to KRAS. As to conditions: ratio of KD value for GDP-bound NRAS wild-type protein to KD value for KRAS (SPR). Put shortly:
as §1

Experiment [2] concerns human lung cancer strain NCI-H441. The format is cell-based. The gist of the method:
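Proliferation was scored by […] measured after the reagent was added to cultures kept at 37°C in 5% carbon dioxide.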

HRAS wild-type protein, sequence (P01112 whole entry): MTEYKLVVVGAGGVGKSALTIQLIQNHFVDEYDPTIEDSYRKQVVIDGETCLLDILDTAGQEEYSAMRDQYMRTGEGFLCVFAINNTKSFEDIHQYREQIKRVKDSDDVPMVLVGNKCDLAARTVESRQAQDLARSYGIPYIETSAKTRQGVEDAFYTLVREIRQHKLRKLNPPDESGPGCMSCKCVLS
GDP-bound NRAS wild-type protein, sequence (P01111 whole entry): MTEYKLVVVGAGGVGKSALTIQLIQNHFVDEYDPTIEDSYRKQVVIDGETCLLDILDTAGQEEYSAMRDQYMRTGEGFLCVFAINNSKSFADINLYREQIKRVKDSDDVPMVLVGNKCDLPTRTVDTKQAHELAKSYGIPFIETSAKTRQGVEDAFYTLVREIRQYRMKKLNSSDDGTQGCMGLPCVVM

As usually defined, the IC50 is the concentration that inhibits the measured activity by half. `CC[C@H](C)[C@@H]1NC(=O)[C@H](CC)N(C)C(=O)C[C@@H](C(=O)N(C)C)N(C)C(=O)[C@H](C2CCCC2)N(C)C(=O)C2(CC(C)(C)C2)NC(=O)[C@@H]2C[C@H](C)CN2C(=O)[C@H](CCc2ccc(C(F)(F)F)c(Cl)c2)NC(=O)CN(C)C(=O)[C@H](Cc2ccc(C)cc2)N2CC/C=C\C[C@@H](C2=O)N(C)C(=O)CN(C)C1=O` [PP1844]: the “HRAS /KRAS” value at HRAS wild-type protein was “B (a compound having 3 or more and less than 10 is denoted as B)”. For the same compound, in experiment [1], the “NRAS /KRAS” value was “A (a compound having 10 or more and less than 20 is denoted as A)”. This compound displayed an IC50 in experiment [2] of 12.3 nM.
Regarding `CC[C@H](C)[C@@H]1NC(=O)[C@H](CC(C)C)N(C)C(=O)C[C@@H](C(=O)N(C)C)N(C)C(=O)[C@H](C2CCCC2)N(C)C(=O)C2(CCC2)NC(=O)[C@@H]2C[C@@H](C)CN2C(=O)[C@H](CCc2ccc(C(F)(F)F)c(Cl)c2)NC(=O)CN(C)C(=O)[C@H](Cc2ccc(C)cc2)N2CC/C=C\C[C@@H](C2=O)N(C)C(=O)CN(C)C1=O` [PP1854], the “HRAS /KRAS” value on HRAS wild-type protein was “A (a compound having 10 or more and less than 20 is denoted as A)”. Moreover, in experiment [1], the “NRAS /KRAS” value was “A (a compound having 10 or more and less than 20 is denoted as A)”. For the same compound, in experiment [2], the IC50 was found to be 5.2 nM.
For `CC[C@H](C)[C@@H]1NC(=O)[C@H](CC)N(C)C(=O)C[C@@H](C(=O)N(C)CC)N(C)C(=O)[C@H](C2CCCC2)N(C)C(=O)C2(CCC2)NC(=O)[C@@H]2C[C@@H](C)CN2C(=O)[C@H](CCc2ccc(C(F)(F)F)c(OC)c2)NC(=O)CN(C)C(=O)[C@H](Cc2ccc(C)cc2)N2CC/C=C\C[C@@H](C2=O)N(C)C(=O)CN(C)C1=O` [PP1855], on HRAS wild-type protein, the “HRAS /KRAS” value was “A (a compound having 10 or more and less than 20 is denoted as A)”. Also, the “NRAS /KRAS” value in experiment [1] is given as “AA (a compound having 20 or more is denoted as AA)”. For the same compound, in experiment [2], the IC50 was determined as 17.7 nM.
As for `CC[C@H](C)[C@@H]1NC(=O)[C@H](CC)N(C)C(=O)C[C@@H](C(=O)N(C)C)N(C)C(=O)[C@H](C2CCCC2)N(C)C(=O)C2(CC(C)(C)C2)NC(=O)[C@@H]2C[C@H](C)CN2C(=O)[C@H](CCc2cc(F)c(C(F)(F)F)c(F)c2)NC(=O)CN(C)C(=O)[C@H](Cc2ccc(C)cc2)N2CC/C=C\C[C@@H](C2=O)N(C)C(=O)CN(C)C1=O` [PP1856], at HRAS wild-type protein, the “HRAS /KRAS” value is “A (a compound having 10 or more and less than 20 is denoted as A)”. Besides, in experiment [1], the “NRAS /KRAS” value was “A (a compound having 10 or more and less than 20 is denoted as A)”. The IC50 in experiment [2] amounted to 1.4 nM.
Turning to `CC[C@H](C)[C@@H]1NC(=O)[C@H](CC2CC2)N(C)C(=O)C[C@@H](C(=O)N(C)C)N(C)C(=O)[C@H](C2CCCC2)N(C)C(=O)C2(CCC2)NC(=O)[C@@H]2C[C@@H](C)CN2C(=O)[C@H](CCc2ccc(C(F)(F)F)c(OC)c2)NC(=O)CN(C)C(=O)[C@H](Cc2ccc(C)cc2)N2CC/C=C\C[C@@H](C2=O)N(C)C(=O)CN(C)C1=O` [PP1863], at HRAS wild-type protein, the “HRAS /KRAS” value was “A (a compound having 10 or more and less than 20 is denoted as A)”. In addition, the “NRAS /KRAS” value in experiment [1] was “A (a compound having 10 or more and less than 20 is denoted as A)”. Besides, the concentration for half-maximal inhibition (IC50) in experiment [2] came out at 88.8 nM.
With `CC[C@H](C)[C@@H]1NC(=O)[C@H](CC(C)C)N(C)C(=O)C[C@@H](C(=O)N(C)C)N(C)C(=O)[C@H](C2CCCC2)N(C)C(=O)C2(CCC2)NC(=O)[C@@H]2C[C@H](C)CN2C(=O)[C@H](CCc2cc(F)c(C(F)(F)F)c(F)c2)NC(=O)CN(C)C(=O)[C@H](Cc2ccc(C)cc2)N2CC/C=C\C[C@@H](C2=O)N(C)C(=O)CN(C)C1=O` [PP1864], the “HRAS /KRAS” value on HRAS wild-type protein was “B (a compound having 3 or more and less than 10 is denoted as B)”. Moreover, the “NRAS /KRAS” value in experiment [1] is “A (a compound having 10 or more and less than 20 is denoted as A)”. Besides, the IC50 in experiment [2] was found to be 10.2 nM.
For the compound `CC[C@H](C)[C@@H]1NC(=O)[C@H](CC(C)C)N(C)C(=O)C[C@@H](C(=O)N(C)C)N(C)C(=O)[C@H](C2CCCC2)N(C)C(=O)C2(CCC2)NC(=O)[C@@H]2C[C@@H](C)CN2C(=O)[C@H](CCc2cc(F)c(C(F)(F)F)c(F)c2)NC(=O)CN(C)C(=O)[C@H](Cc2ccc(C)cc2)N2CC/C=C\C[C@@H](C2=O)N(C)C(=O)CN(C)C1=O` [PP1866], on HRAS wild-type protein, the “HRAS /KRAS” value is “B (a compound having 3 or more and less than 10 is denoted as B)”. Further, the “NRAS /KRAS” value in experiment [1] is “A (a compound having 10 or more and less than 20 is denoted as A)”. Besides, 11.1 nM corresponded to half-maximal inhibition in experiment [2] (IC50).
For the compound `CC[C@H](C)[C@@H]1NC(=O)[C@H](CC(C)C)N(C)C(=O)C[C@@H](C(=O)N(C)C)N(C)C(=O)[C@H](C2CCCC2)N(C)C(=O)C2(CCC2)NC(=O)[C@@H]2C[C@@H](C)CN2C(=O)[C@H](CCc2ccc(C(F)(F)F)c(OC)c2)NC(=O)CN(C)C(=O)[C@H](Cc2ccc(C)cc2)N2CC/C=C\C[C@@H](C2=O)N(C)C(=O)CN(C)C1=O` [PP1867], the “HRAS /KRAS” value at HRAS wild-type protein is “B (a compound having 3 or more and less than 10 is denoted as B)”. Further, in experiment [1], the “NRAS /KRAS” value is “A (a compound having 10 or more and less than 20 is denoted as A)”. Inhibition in experiment [2] was half-maximal at 47.8 nM (IC50).
`CCO[C@@H]1C[C@H]2C(=O)NC3(CCC3)C(=O)N(C)[C@@H](C3CCCC3)C(=O)N(C)[C@H](C(=O)N(C)CC)CC(=O)N(C)[C@@H](CC)C(=O)N[C@@H]([C@@H](C)CC)C(=O)N(C)CC(=O)N(C)[C@H]3C/C=C\CCN(C3=O)[C@@H](Cc3ccc(C)cc3)C(=O)N(C)CC(=O)N[C@@H](CCc3ccc(C(F)(F)F)c(OC)c3)C(=O)N2C1` [PP1869]: the “HRAS /KRAS” value at HRAS wild-type protein was “A (a compound having 10 or more and less than 20 is denoted as A)”. Also, the “NRAS /KRAS” value in experiment [1] is “A (a compound having 10 or more and less than 20 is denoted as A)”. The same compound yielded an IC50 in experiment [2] of 36.4 nM.
Turning to `CC[C@H](C)[C@@H]1NC(=O)[C@H](CC)N(C)C(=O)C[C@@H](C(=O)N(C)CC)N(C)C(=O)[C@H](C2CCCC2)N(C)C(=O)C2(CC(C)(C)C2)NC(=O)[C@@H]2C[C@@H](C)CN2C(=O)[C@H](CCc2ccc(C(F)(F)F)c(OC)c2)NC(=O)CN(C)C(=O)[C@H](Cc2ccc(C)cc2)N2CC/C=C\C[C@@H](C2=O)N(C)C(=O)CN(C)C1=O` [PP1870], on HRAS wild-type protein, the “HRAS /KRAS” value was “A (a compound having 10 or more and less than 20 is denoted as A)”. Moreover, the “NRAS /KRAS” value in experiment [1] was “A (a compound having 10 or more and less than 20 is denoted as A)”. In experiment [2], this compound gave an IC50 of 12.4 nM.
Take `CCC[C@H]1C(=O)N[C@@H]([C@@H](C)CC)C(=O)N(C)CC(=O)N(C)[C@H]2C/C=C\CCN(C2=O)[C@@H](Cc2ccc(C)cc2)C(=O)N(C)CC(=O)N[C@@H](CCc2ccc(C(F)(F)F)c(OC)c2)C(=O)N2C[C@H](OCC)C[C@H]2C(=O)NC2(CCC2)C(=O)N(C)[C@@H](C2CCCC2)C(=O)N(C)[C@H](C(=O)N(C)C)CC(=O)N1C` [PP1871]: the “HRAS /KRAS” value on HRAS wild-type protein was “A (a compound having 10 or more and less than 20 is denoted as A)”. Besides, the “NRAS /KRAS” value in experiment [1] was “A (a compound having 10 or more and less than 20 is denoted as A)”. 13.1 nM corresponded to half-maximal inhibition in experiment [2] (IC50).
As for `CCO[C@@H]1C[C@H]2C(=O)NC3(CC(C)(C)C3)C(=O)N(C)[C@@H](C3CCCC3)C(=O)N(C)[C@H](C(=O)N(C)CC)CC(=O)N(C)[C@@H](CC)C(=O)N[C@@H]([C@@H](C)CC)C(=O)N(C)CC(=O)N(C)[C@H]3C/C=C\CCN(C3=O)[C@@H](Cc3ccc(C)cc3)C(=O)N(C)CC(=O)N[C@@H](CCc3ccc(C(F)(F)F)c(OC)c3)C(=O)N2C1` [PP1872], the “HRAS /KRAS” value at HRAS wild-type protein is “A (a compound having 10 or more and less than 20 is denoted as A)”. For the same compound, in experiment [1], the “NRAS /KRAS” value is “A (a compound having 10 or more and less than 20 is denoted as A)”. This compound registered an IC50 in experiment [2] of 12.4 nM.
